Data as given in a melting point compilation (Tetko et al.; mined from patent text by program, amines drawn as free bases though some values may be those of a salt).

Row | melting point | SMILES
1 | 138 to 139 °C | CC(C)(C)OC(=O)[C@@H]1CNC(=O)N1C(=O)OCc1ccccc1
2 | 110 to 114 °C | CC(C)c1ccc(N(Cc2cnn(CCO)c2)C(=O)C2CCCc3c(O)cccc32)cc1 (stereo not given)
3 | 119 °C | CC(Nc1ccc(Cc2ccccc2)cc1)C(=O)O (stereo not given)
4 | 253 to 255 °C | Oc1ccc(-c2nc3cc(O)ccc3o2)c(Cl)c1
5 | 60 to 62 °C | c1ccc2c(c1)NCS2
6 | 180 to 184 °C | COc1ccc(-c2ocnc2-c2cc(OC)c(Br)c(OC)c2)cc1N
7 | 41 to 42 °C | C#CC(CC(=O)OC)c1ccc(OC)c(OC2CCCC2)c1 (racemic)
8 | 228 °C | Cc1c(Cl)cccc1S(=O)(=O)Nc1ccc2ncccc2c1
9 | 202 °C | CC1(C)CCC(C)(C)c2cc3c(=O)ccoc3cc21
10 | 245 to 249 °C | CC(C)(C)c1ccc(C(=O)Nc2ccc([N+](=O)[O-])cc2C(=O)O)cc1
11 | 108 to 110 °C | CC(C)c1cc(Oc2ccccc2)cc(C2CCCCC2)c1N
12 | 78 to 79 °C | COc1ccccc1C(=O)OCC(=O)c1ccccc1
13 | 128 to 130 °C | Cc1c2c(cnc3ccccc32)nn1-c1ccccc1
14 | 200 to 202 °C | O=C(O)c1ccc(NCC=Cc2ccccc2)cc1
15 | 131 to 133 °C | Cc1noc(NS(=O)(=O)c2c(C)sc3ccccc23)c1Br
16 | 248 to 250 °C | N#Cc1cnc2cc(Br)sc2c1Nc1ccc(Oc2ccccc2)cc1
17 | 162 to 163 °C | O=C(O)COCc1ccc(C=CC(=O)N2CCc3c([nH]c4ccccc34)C2c2ccc3c(c2)OCO3)cc1 (stereo not given)
18 | 183 to 184 °C | COc1cc(CNC(=O)c2ccc3n2Cc2ccccc2N(C(=O)c2ccc(-c4ccccc4C)c(C)c2)C3)cc(OC)c1
19 | 258 to 260 °C | O=c1[nH]c2cc([N+](=O)[O-])ccc2c(=O)n1S(=O)(=O)c1ccc(Cl)cc1
20 | 84 to 85 °C | CCCCCCCCCCc1ccc(C(=O)CCCCC(=O)O)cc1

Row | melting point | SMILES
21 | 118 to 121 °C | CCCCCC(CC(=O)Nc1cc(C(N)=O)ccc1C(C)(C)C)c1cccc(OC)c1O (stereo not given)
22 | 235 °C | CC(C)(C)C1=NN(c2ccc(C(=O)O)cc2)C(c2cccc([N+](=O)[O-])c2)C1 (stereo not given)
23 | 163 to 165 °C | N#Cc1cccc(C2C(=O)N(Cc3ccccc3)Cc3cncn32)c1 (stereo not given)
24 | 77 to 78 °C | Clc1ccc(CO[C@H]2CO[C@@H](c3ccccc3)OC2)cc1Cl
25 | 83 °C | CCOC(=O)C(Cc1cc(Oc2c(Cl)cc(C(F)(F)F)cc2Cl)ccc1SC(F)(F)F)C(=O)OCC
26 | 58 °C | C=C(C)C(=O)OCCCOc1ccc(OC(=O)C(=C)C)cc1
27 | 81 °C | CC1(C)C=Cc2cc(S(=O)(=O)C[N+](=O)[O-])ccc2O1
28 | 40 to 42 °C | CCN(CC)C(=O)c1ccc(OC)cc1
29 | 267 to 269 °C | O=C1CCC(N2Cc3c(OCc4ccc5ncccc5c4)cccc3C2=O)C(=O)N1 (stereo not given)
30 | 222 to 224 °C | COC(=O)c1c(-c2ccc(C)cc2)ccnc1O
31 | 227 to 229 °C | O=C(O)CN1C(=O)C(=Cc2cccc(Cl)c2)SC1=S
32 | 206 °C | CCCCN1CCC(C(=O)O)(S(=O)(=O)c2ccc(OC)cc2)CC1
33 | 174 to 176 °C | O=C(Cc1ccc2c(c1)OCO2)Nc1cc(C2CC2)n[nH]1
34 | 196 to 197 °C | CCOC(=O)c1cc2cc3[nH]c(=O)[nH]c3cc2[nH]1
35 | 168 to 170 °C | CC(C)(C)n1nnc(-c2ccc(CNc3n[nH]c4ncnc(Nc5cccc(Cl)c5)c34)cc2)n1
36 | 52 °C | Cc1c(F)c(F)c(CNc2ccc(Cl)c(O)c2)c(F)c1F
37 | 150 to 152 °C | CCOC(=O)C1=C(C)NC(=S)N(C(=O)OC(C)C)C1c1cccc([N+](=O)[O-])c1 (stereo not given)
38 | 87 to 88.5 °C | O=C(O)Cc1cc(Br)ccc1OCc1ccccc1
39 | 94 to 96 °C | COc1cccc2c1CC1(CCCCC1)C2=O
40 | 108 to 110 °C | CCCCNC(=O)c1ccc(Cl)c(-n2nc(CCCC)n(Cc3ccc(-c4ccccc4S(N)(=O)=O)cc3F)c2=O)c1
